Laboratory results from ChEMBL document CHEMBL1144085, “DNA polymerase beta inhibitors from Sandoricum koetjape” (J Nat Prod, 1999).
Active and inactive are the calls of the source. The calls are words filed in the database; no cut-off is given here.

Tests used:
[1] = molecular target: DNA polymerase beta (Rattus norvegicus) (UniProt P06766); assay: (§1) Inhibition of rat DNA polymerase beta
DNA polymerase beta = DNA polymerase beta (Rattus norvegicus, UniProt P06766); assay: as §1
[2] = molecular target: DNA polymerase beta (Rattus norvegicus) (UniProt P06766); assay: Activity of rat DNA polymerase beta using variable levels of DNA template primer by Lineweaver-Burke plot
[3] = molecular target: DNA polymerase beta (Rattus norvegicus) (UniProt P06766); assay: Activity of rat DNA polymerase beta using variable levels of [3H]TTP substrate by Lineweaver-Burke plot

Row | SMILES | Activity [1] | IC50 (DNA polymerase beta) [µM] | Kii [2] [µM] | Kis [2] [µM] | Kii [3] [µM] | Kis [3] [µM]
1 | CCOC(=O)[C@]1(C)CC[C@]2(C)CC[C@]3(C)C(=CC[C@@H]4[C@@]5(C)CCC(=O)C(C)(C)[C@@H]5CC[C@]43C)[C@@H]2C1 | inactive | – | – | – | – | –
2 | CC1(C)/C(=N\OCc2ccccc2)CC[C@]2(C)[C@H]3CC=C4[C@@H]5C[C@](C)(C(=O)O)CC[C@]5(C)CC[C@@]4(C)[C@]3(C)CC[C@@H]12 | – | 35 | 24 | 37 | 22 | 69
3 | CC1(C)C(=O)CC[C@]2(C)[C@H]3CC=C4[C@@H]5C[C@](C)(C(=O)O)CC[C@]5(C)CC[C@@]4(C)[C@]3(C)CC[C@@H]12 | – | 22 | 50 | 5.5 | 9.1 | 60
4 | CC1(C)/C(=N\O)CC[C@]2(C)[C@H]3CC=C4[C@@H]5C[C@](C)(C(=O)O)CC[C@]5(C)CC[C@@]4(C)[C@]3(C)CC[C@@H]12 | – | 16 | – | – | 10 | 16
5 | CC1(C)[C@H](O)CC[C@]2(C)[C@H]3CC=C4[C@@H]5C[C@](C)(C(=O)O)CC[C@]5(C)CC[C@@]4(C)[C@]3(C)CC[C@@H]12 [KATONIC ACID] | – | 36 | 11 | 4.2 | 24 | 60
6 | CCCCNC(=O)[C@]1(C)CC[C@]2(C)CC[C@]3(C)C(=CC[C@@H]4[C@@]5(C)CCC(=O)C(C)(C)[C@@H]5CC[C@]43C)[C@@H]2C1 | inactive | – | – | – | – | –
7 | C=C(C)[C@@H]1CC[C@]2(C)[C@H](CC=C3[C@@H]4C[C@@](C)(C(=O)O)CC[C@]4(C)CC[C@]32C)[C@@]1(C)CCC(=O)O [KOETJAPIC ACID] | – | 20 | 18 | 5.6 | 11 | 24
8 | CCN(CC)C(=O)[C@]1(C)CC[C@]2(C)CC[C@]3(C)C(=CC[C@@H]4[C@@]5(C)CCC(=O)C(C)(C)[C@@H]5CC[C@]43C)[C@@H]2C1 | inactive | – | – | – | – | –
9 | CO/N=C1/CC[C@]2(C)[C@H]3CC=C4[C@@H]5C[C@](C)(C(=O)O)CC[C@]5(C)CC[C@@]4(C)[C@]3(C)CC[C@H]2C1(C)C | – | 36 | 35 | 9.1 | 35 | 73
10 | COC(=O)[C@]1(C)CC[C@]2(C)CC[C@]3(C)C(=CC[C@@H]4[C@@]5(C)CC[C@@H](O)C(C)(C)[C@@H]5CC[C@]43C)[C@@H]2C1 | inactive | – | – | – | – | –
11 | CC(C)(C)NC(=O)[C@]1(C)CC[C@]2(C)CC[C@]3(C)C(=CC[C@@H]4[C@@]5(C)CCC(=O)C(C)(C)[C@@H]5CC[C@]43C)[C@@H]2C1 | inactive | – | – | – | – | –
12 | CC1(C)C(=O)CC[C@]2(C)[C@H]3CC=C4[C@@H]5C[C@](C)(C(N)=O)CC[C@]5(C)CC[C@@]4(C)[C@]3(C)CC[C@@H]12 | inactive | – | – | – | – | –
13 | COC(=O)[C@]1(C)CC[C@]2(C)CC[C@]3(C)C(=CC[C@@H]4[C@@]5(C)CCC(=O)C(C)(C)[C@@H]5CC[C@]43C)[C@@H]2C1 | inactive | – | – | – | – | –
